Measured values reported in US9938262B2, “Benzamides” (Merck Patent GmbH, priority 2011, dated 2018).

Target: T1, FSHR (Homo sapiens, UniProt P23945)
T1 construct: expressed in transfected cells; host or cells: CHO (Cho-FSHR-LUC-1-1-43)
Assay: EC50 of cyclic AMP production in CHO FSHR cells + EC20 FSH (Assay A)
Assay type: cell-based
Conditions: Table 1; for activation at 5 µM: 1 h, effect relative to maximum response of the FSH standard; for EC50: CHO FSHR cells + EC20 FSH, read-out: Assay A EC50 of cyclic AMP production
Procedure: Example 10: EC50 of Cyclic AMP Production in CHO FSHR Cells+EC20 FSH (Assay A)
2500 Cho-FSHR-LUC-1-1-43 cells were plated per well in 5 μl of phenol red free DMEM/F12+1% FBS. Cells were plated in 384 well, solid white low volume plates (Greiner 784075) by Multidrop. Cells were assayed by adding 100 μl of 2×EC20 FSH/IBMX in DMEM/F12+0.1% BSA) by Multidrop to 2 μl of test compound stamped in 384 well plates (compounds are diluted 1:50). The final FSH concentration was […], and the final IBMX concentration was 200 μM. The compound plate map was as follows: Column 1: 2 μl of DMSO; Column 2: 2 μl of DMSO; Columns 3-12 and 13-24: 2 μl of test compound, diluted 1:4 in 100% DMSO, or 2 μl of FSH, diluted 1:4 in DMEM/F12+0.1% BSA. The starting concentration for FSH was 50 nM (final concentration was 0.5 nM). […] 5 μl of compound+EC20 FSH mixture were transferred to cell plates (1:2 dilution into 5 μl of cell media) The plates were incubated at 37° C. for 1 h. 10 μl of mixed HTRF (CisBio #62AM4PEC) reagents were added per well and incubated at room temperature for 1 h. The plates were read on Envision using the cAMP HTRF—low volume 384 well protocol. The readout was the calculated fluorescence ratio (665 nm/620 nm). Values given in percent (%) indicate the percental effect (response) at a certain concentration of agonist relative to the maximum response of the FSH standard.

T1 sequence (P23945 18-695): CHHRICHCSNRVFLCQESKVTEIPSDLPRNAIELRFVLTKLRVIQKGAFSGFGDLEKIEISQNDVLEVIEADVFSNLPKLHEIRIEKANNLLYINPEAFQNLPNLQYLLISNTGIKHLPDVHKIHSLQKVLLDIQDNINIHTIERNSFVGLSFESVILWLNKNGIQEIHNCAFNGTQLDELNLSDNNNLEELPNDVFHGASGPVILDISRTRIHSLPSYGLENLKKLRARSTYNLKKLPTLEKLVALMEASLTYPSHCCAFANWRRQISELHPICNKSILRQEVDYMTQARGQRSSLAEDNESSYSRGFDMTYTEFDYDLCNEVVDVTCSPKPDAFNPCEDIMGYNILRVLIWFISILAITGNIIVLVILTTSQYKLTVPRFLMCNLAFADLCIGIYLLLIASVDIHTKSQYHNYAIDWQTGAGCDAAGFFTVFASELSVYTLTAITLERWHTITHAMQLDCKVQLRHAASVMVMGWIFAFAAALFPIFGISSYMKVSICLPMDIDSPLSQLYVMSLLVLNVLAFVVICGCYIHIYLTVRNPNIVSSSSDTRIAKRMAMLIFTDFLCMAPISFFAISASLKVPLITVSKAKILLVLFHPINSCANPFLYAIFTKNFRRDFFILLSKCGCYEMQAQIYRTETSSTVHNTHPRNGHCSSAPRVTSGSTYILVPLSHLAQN
T1 sequence (P01215 25-116 partner): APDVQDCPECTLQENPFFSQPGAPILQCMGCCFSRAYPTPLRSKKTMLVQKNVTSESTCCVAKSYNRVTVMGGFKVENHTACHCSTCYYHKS
T1 sequence (P01225 19-129 partner): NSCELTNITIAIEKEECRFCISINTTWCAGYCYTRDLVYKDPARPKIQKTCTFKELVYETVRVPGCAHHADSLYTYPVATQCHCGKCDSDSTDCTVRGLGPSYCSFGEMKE

Compound	activation at 5 µM [%]	EC50 [nM]
CCc1onc(C)c1C(=O)Nc1cc(C(=O)NCCCN2CCCC2=O)ccc1N1CCN(c2ccccc2C)CC1 [Compound 81]	11	
Cc1ccccc1N1CCN(c2ccc(C(=O)NCCCN3CCCC3=O)cc2NC(=O)C2CCCCC2)CC1 [Compound 82]		1000 to 10000
Cc1ccccc1N1CCN(c2ccc(C(=O)NCCCN3CCCC3=O)cc2NC(=O)C2CCN(C)CC2)CC1 [Compound 83]	8	
Cc1ccccc1N1CCN(c2ccc(C(=O)NCCCN3CCCC3=O)cc2NC(=O)c2cccc(N(C)C)c2)CC1 [Compound 86]	47	
Cc1ccccc1N1CCN(c2ccc(C(=O)NCCCN3CCCC3=O)cc2NC(=O)c2ccccc2C(F)(F)F)CC1 [Compound 87]		1000 to 10000
Cc1ccccc1N1CCN(c2ccc(C(=O)NCCCN3CCCC3=O)cc2NC(=O)c2cccc3ccccc23)CC1 [Compound 88]	34	
Cc1ccccc1N1CCN(c2ccc(C(=O)NCCCc3ccccc3)cc2NC(=O)c2ccco2)CC1 [Compound 89]		100 to 1000
Cc1ccccc1N1CCN(c2ccc(C(=O)NCCCn3cccn3)cc2NC(=O)c2ccco2)CC1 [Compound 90]		100 to 1000
Cc1ccccc1N1CCN(c2ccc(C(=O)N[C@@H](C)C(=O)NC3CCCC3)cc2NC(=O)c2ccco2)CC1 [Compound 91]		1000 to 10000
Cc1ccccc1N1CCN(c2ccc(C(=O)NCCCN3CCCC3=O)cc2NC(=O)C2CCCO2)CC1 (stereo not drawn) [Compound 92]		1000 to 10000
COc1cccc(CNC(=O)c2ccc(N3CCN(c4ccccc4C)CC3)c(NC(=O)c3ccco3)c2)c1 [Compound 93, Furan-2-carboxylic acid [5-(3-methoxy-benzylcarbamoyl)-2-(4-o-tolyl-piperazin-1-yl)-phenyl]-amide]		100 to 1000
Cc1ccccc1N1CCN(c2ccc(C(=O)NCc3ccc(C(F)(F)F)cc3)cc2NC(=O)c2ccco2)CC1 [Compound 94, Furan-2-carboxylic acid [2-(4-o-tolyl-piperazin-1-yl)-5-(4-trifluoromethyl-benzylcarbamoyl)-phenyl]-amide]	48	
COc1cc(CNC(=O)c2ccc(N3CCN(c4ccccc4C)CC3)c(NC(=O)c3ccco3)c2)cc(OC)c1 [Compound 95, Furan-2-carboxylic acid [5-(3,5-dimethoxy-benzylcarbamoyl)-2-(4-o-tolyl-piperazin-1-yl)-phenyl]-amide]		100 to 1000
Cc1ccccc1N1CCN(c2ccc(C(=O)NCc3cccc4ccccc34)cc2NC(=O)c2ccco2)CC1 [Compound 96, Furan-2-carboxylic acid [5-[(naphthalen-1-ylmethyl)-carbamoyl]-2-(4-o-tolyl-piperazin-1-yl)-phenyl]-amide]		> 10000
CCNc1nc(C)c(C(=O)Nc2cc(C(=O)NCCCN3CCCC3=O)ccc2N2CCN(c3ccccc3C)CC2)s1 [Compound 100]	12	
Cc1nc(C(=O)Nc2cc(C(=O)NCCCN3CCCC3=O)ccc2N2CCN(c3ccccc3C)CC2)c(C)o1 [Compound 102]		1000 to 10000
Cc1ccccc1N1CCN(c2ccc(C(=O)NCCCN3CCCC3=O)cc2NC(=O)c2cnoc2C2CC2)CC1 [Compound 109]	10	

Compound	activation at 5 µM [%]	EC50 [nM]
Cc1ccccc1N1CCN(c2ccc(C(=O)NCCCN3CCCC3=O)cc2NC(=O)c2cccc3c2CCCC3)CC1 [Compound 112]	21	
Cc1ccccc1N1CCN(c2ccc(C(=O)NCCCN3CCCC3=O)cc2NC(=O)c2ccc3ccn(C)c3c2)CC1 [Compound 114]	40	
Cc1ccccc1N1CCN(c2ccc(C(=O)NCCCN3CCCC3=O)cc2NC(=O)c2cccc3nccnc23)CC1 [Compound 115]	39	
Cc1ccccc1N1CCN(c2ccc(C(=O)NCCCn3ccnc3)cc2NC(=O)c2ccco2)CC1 [Compound 116]		100 to 1000
Cc1ccccc1N1CCN(c2ccc(C(=O)NCCCn3ccnc3C)cc2NC(=O)c2ccco2)CC1 [Compound 118]		100 to 1000
Cc1ccccc1N1CCN(c2ccc(C(=O)NCCS(=O)(=O)N3CCCC3)cc2NC(=O)c2ccco2)CC1 [Compound 119]		100 to 1000
Cc1ccccc1N1CCN(c2ccc(C(=O)NCCC(=O)N3CCCC3)cc2NC(=O)c2ccco2)CC1 [Compound 120]		100 to 1000
COc1ccc(CNC(=O)c2ccc(N3CCN(c4ccccc4C)CC3)c(NC(=O)c3ccco3)c2)cc1 [Compound 122]	24	
COc1ccccc1CNC(=O)c1ccc(N2CCN(c3ccccc3C)CC2)c(NC(=O)c2ccco2)c1 [Compound 124, Furan-2-carboxylic acid [5-(2-methoxy-benzylcarbamoyl)-2-(4-o-tolyl-piperazin-1-yl)-phenyl]-amide]	82	
COc1ccc(C(=O)Nc2cc(C(=O)NCCCN3CCCC3=O)ccc2N2CCN(c3ccccc3C)CC2)cc1OC [Compound 127]	33	
Cc1ccccc1N1CCN(c2ccc(C(=O)NCc3ccc(Cl)cc3)cc2NC(=O)c2ccco2)CC1 [Compound 131, Furan-2-carboxylic acid [5-(4-chloro-benzylcarbamoyl)-2-(4-o-tolyl-piperazin-1-yl)-phenyl]-amide]		100 to 1000
CNCCNC(=O)c1ccc(N2CCN(c3ccccc3C)CC2)c(NC(=O)c2ccco2)c1 [Compound 132, Furan-2-carboxylic acid [5-(2-methylamino-ethylcarbamoyl)-2-(4-o-tolyl-piperazin-1-yl)-phenyl]-amide]		1000 to 10000
CCC(C)(C)C(=O)N(C)CCNC(=O)c1ccc(N2CCN(c3ccccc3C)CC2)c(NC(=O)c2ccco2)c1 [Compound 133, Furan-2-carboxylic acid [5-{2-[(2,2-dimethyl-butyryl)-methyl-amino]-ethylcarbamoyl}-2-(4-o-tolyl-piperazin-1-yl)-phenyl]-amide]		100 to 1000
Cc1ccccc1N1CCN(c2ccc(C(=O)NCCN(C)C(=O)c3ccc4c(c3)OCO4)cc2NC(=O)c2ccco2)CC1 [Compound 134, Benzo[1,3]dioxole-5-carboxylic acid {2-[3-[(furan-2-carbonyl)-amino]-4-(4-o-tolyl-piperazin-1-yl)-benzoylamino]-ethyl}-methyl-amide]		1000 to 10000
Cc1ccc(C(=O)Nc2cc(C(=O)N[C@@H]3CCN(C(=O)OC(C)(C)C)C3)ccc2N2CCN(c3ccccc3C)CC2)o1 [Compound 142, (R)-3-[3-[(5-Methyl-furan-2-carbonyl)-amino]-4-(4-o-tolyl-piperazin-1-yl)-benzoylamino]-pyrrolidine-1-carboxylic acid tert-butyl ester]		1000 to 10000
Cc1ccccc1N1CCN(c2ccc(C(=O)NCCCN3CCCC3=O)cc2NC(=O)c2cnoc2C(C)C)CC1 [Compound 145]	16	

The next lines start with the values.

activation at 5 µM [%]	EC50 [nM]	Compound
	1000 to 10000	Cc1ccccc1N1CCN(c2ccc(C(=O)NCCCN3CCCC3=O)cc2NC(=O)c2ccno2)CC1 [Compound 98]
35		Cc1ccccc1N1CCN(c2ccc(C(=O)NCCCN3CCCC3=O)cc2NC(=O)c2cncs2)CC1 [Compound 99]
	1000 to 10000	Cc1ccccc1N1CCN(c2ccc(C(=O)NCCCN3CCCC3=O)cc2NC(=O)c2csc(Br)n2)CC1 [Compound 101]
	1000 to 10000	Cc1ccccc1N1CCN(c2ccc(C(=O)NCCCN3CCCC3=O)cc2NC(=O)c2cocn2)CC1 [Compound 103]
33		Cc1ccccc1N1CCN(c2ccc(C(=O)NCCCN3CCCC3=O)cc2NC(=O)c2c(C)noc2C)CC1 [Compound 106]
15		Cc1ccccc1N1CCN(c2ccc(C(=O)NCCCN3CCCC3=O)cc2NC(=O)c2cnoc2C)CC1 [Compound 107]
	1000 to 10000	Cc1ccccc1N1CCN(c2ccc(C(=O)NCCCN3CCCC3=O)cc2NC(=O)c2csnn2)CC1 [Compound 110]
	1000 to 10000	Cc1ccccc1C(=O)Nc1cc(C(=O)NCCCN2CCCC2=O)ccc1N1CCN(c2ccccc2C)CC1 [Compound 111]
	1000 to 10000	Cc1ccccc1N1CCN(c2ccc(C(=O)NCCCN3CCCC3)cc2NC(=O)c2ccco2)CC1 [Compound 117]
33		O=C(NCCCN1CCCC1=O)c1ccc(N2CCN(c3ccccn3)CC2)c(NC(=O)c2ccco2)c1 [Compound 126]
	100 to 1000	Cc1ccccc1N1CCN(c2ccc(C(=O)NCCCN3CCCC3=O)cc2NC(=O)c2ccc(Cl)cn2)CC1 [Compound 129]
	1000 to 10000	Cc1ccc(C(=O)Nc2cc(C(=O)NCCCN3CCCC3=O)ccc2N2CCN(c3ccccc3F)CC2)o1 [Compound 130, 5-Methyl-furan-2-carboxylic acid {2-[4-(2-fluoro-phenyl)-piperazin-1-yl]-5-[3-(2-oxo-pyrrolidin-1-yl)-propylcarbamoyl]-phenyl}-amide]
41		Cc1ccccc1N1CCN(c2ccc(C(=O)NCCCN3CCCC3=O)cc2NC(=O)c2cc(C)c(C)o2)CC1 [Compound 138]
	100 to 1000	CCc1ccc(C(=O)Nc2cc(C(=O)NCCCN3CCCC3=O)ccc2N2CCN(c3ccccc3C)CC2)o1 [Compound 140]
	100 to 1000	COc1ccc(C(=O)Nc2cc(C(=O)NCCCN3CCCC3=O)ccc2N2CCN(c3ccccc3C)CC2)o1 [Compound 141]
